Source: ChEMBL document CHEMBL3108671, “Differential Induction of Cytoplasmic Vacuolization and Methuosis by Novel 2-Indolyl-Substituted Pyridinylpropenones” (2014)
The source made the active and inactive calls. The calls are words filed in the database; no cut-off is given here.

Key:
[1] = tested on: U-251; experiment: Induction of methuosis in human U251 cells assessed as decrease in cell proliferation at 10 uM after 2 days by phase-contrast microscopic analysis; format: functional, cell-based
[2] = tested on: U-251; experiment: Induction of methuosis in human U251 cells assessed as detachment of vacuolated cells at 10 uM after 2 days by phase-contrast microscopic analysis; format: functional, cell-based
[3] = tested on: U-251; experiment: Induction of methuosis in human U251 cells assessed as heavily vacuolated cells at 10 uM after 1 day by phase-contrast microscopic analysis; format: functional, cell-based
[4] = tested on: U-251; experiment: Growth inhibition of human U251 cells preincubated for 24 hrs followed by compound-washout measured at 48 hrs by sulforhodamine assay; format: functional
[5] = tested on: U-251; experiment: Induction of methuosis in human U251 cells assessed as loss of membrane integrity at 10 uM after 2 days by phase-contrast microscopic analysis; format: functional, cell-based
[6] = tested on: U-251; experiment: Induction of methuosis in human U251 cells assessed as sparse cells at 10 uM after 1 day by phase-contrast microscopic analysis; format: functional, cell-based

SMILES	Activity [1]	Activity [2]	Activity [3]	GI50 [4] [µM]	Activity [5]	Activity [6]
COc1ccc2[nH]c(C(C)C)c(/C=C/C(=O)c3ccncc3)c2c1	inactive	inactive	Active	> 20		
COc1ccc2[nH]c(C)c(/C=C/C(=O)c3cccnc3)c2c1	inactive		inactive	16.9		
CCc1[nH]c2ccc(OC)cc2c1/C=C/C(=O)c1ccncc1		Active	Active	3.2	Active	Active
COc1ccc2[nH]cc(/C=C/C(=O)c3ccncc3)c2c1	inactive	inactive	Active	18.6		
COc1ccc2[nH]c(CC(C)C)c(/C=C/C(=O)c3ccncc3)c2c1	inactive	inactive	Active	16.6		
CCCc1[nH]c2ccc(OC)cc2c1/C=C/C(=O)c1ccncc1	inactive	inactive	Active	15.3		
